Data from PubChem BioAssay AID489033 (Sanford-Burnham Center for Chemical Genomics, 2010).
Active and inactive are the calls of the source. How the calls were made is not given here. *1 amine or outer side, *2 acyl side, *3 side chain or, on linkers, in order; H or OH if unused. Where a SMILES comes first, the peptide text is derived from it. [ ]: non-standard residue; d: D form. X2 = CCC[C@@H](N[*:1])[C@H](C)C(=O)O[C@H](C(=O)[*:2])[C@@H](C)CC; X1 = CC(N[*:1])C(=O)C(C)(C)C(=O)[*:2]; NMeY = CN[C@@H](Cc1ccc(O)cc1)C(=O)O; NMeL = CN[C@@H](CC(C)C)C(=O)O; NMeV = CN[C@H](C(=O)O)C(C)C; NMeA = CN[C@@H](C)C(=O)O

System: 697B B-cell line, NF-kB luciferase reporter luminescence
Test: NF-kB reporter inhibition in B cells, dose response, selectivity assay for T-cell antigen receptor NF-kB inhibitors, 697B cells, luminescence (AID 489033)

How did the IC50 turn out when `CCOc1ccc(Br)cc1C1=CC(=O)C[C@H](c2ccc(OC)cc2)C1` was run?
Its IC50 is > 80 µM (inactive).

How did the IC50 turn out when `O=[N+]([O-])c1ccc(O)c(/C=N/Nc2ccc(Cl)nn2)c1` was run?
The IC50 was > 80 µM (inactive).

For `CCN1C=CC(=C2C(=O)c3ccccc3C2=O)C=C1`, which IC50 is on record?
Its IC50 is 1.13 µM.

For `CCOc1ccccc1NC(=O)Cn1nnc(C(=O)NCc2ccco2)c1N`, which IC50 is on record?
Its IC50 is > 80 µM (inactive).

Which IC50 does the source give for `COc1cc(C(=O)N2CCN(c3cccc(C)c3C)CC2)cc(OC)c1OC` here?
The IC50 was > 80 µM (inactive).

`COc1cc(C2C3=C(Nc4ncnn42)c2ccccc2CC3)cc(OC)c1OC` (stereo not drawn) was tested. Which IC50 did it give?
Its IC50 is > 80 µM (inactive).

How did the IC50 turn out when `CC1=NNC(=O)/C1=C\c1cn(-c2ccccc2)nc1-c1ccc(Cl)cc1` was run?
The IC50 was 6.48 µM.

Which IC50 does the source give for `c1ccc(-c2noc(-c3ccc4c(c3)OCO4)n2)nc1` here?
Its IC50 is 1.27 µM.

Which IC50 does the source give for `COc1ccc(S(=O)(=O)Nc2cccc(-c3ccc4nncn4n3)c2)cc1F` here?
Its IC50 is > 80 µM (inactive).

`COc1cc(/C=C/[N+](=O)[O-])ccc1OCc1cccc(C(=O)O)c1` was tested. Which IC50 did it give?
Its IC50 is 12 µM.

How did the IC50 turn out when `CCOc1ccccc1C1CC(=O)Nc2cc3c(cc21)OCCO3` (stereo not drawn) was run?
The IC50 was > 80 µM (inactive).

For `COc1ccc(C(=O)N2CCN(c3ccc([N+](=O)[O-])c(NCCc4ccc(OC)c(OC)c4)c3)CC2)cc1`, which IC50 is on record?
The IC50 was > 80 µM (inactive).

For `CCOC(=O)N=Nc1c2ccccc2c2nc3no[nH]c3nc12`, which IC50 is on record?
Its IC50 is 2.28 µM.

With `Cc1ccc(N2C(=O)c3cccc4c(N)ccc(c34)C2=O)c2cccnc12` as the compound, how does the IC50 read?
Its IC50 is > 80 µM (inactive).

For `Cc1cccc(N2CCN(C(=O)c3c(-c4ccccc4Cl)noc3C)CC2)c1C`, which IC50 is on record?
Its IC50 is > 80 µM (inactive).

How did the IC50 turn out when `Cc1cc(=O)oc2cc(OCC3CC(c4ccccc4Cl)=NO3)ccc12` (stereo not drawn) was run?
The IC50 was > 80 µM (inactive).

For `COc1ccccc1C(=O)Nc1nc2ccccc2s1`, which IC50 is on record?
Its IC50 is 0.53 µM.

With `Cn1nc([N+](=O)[O-])nc1Sc1nnc(-c2ccccc2)o1` as the compound, how does the IC50 read?
Its IC50 is 17.8 µM.

For `COc1ccc(C(=O)NNC(=O)c2ccccn2)cc1`, which IC50 is on record?
The IC50 was 5.2 µM.

How did the IC50 turn out when `CCOc1ccc(NC(=O)c2cc3c(C)nc4ccccc4c3o2)cc1` was run?
Its IC50 is > 80 µM (inactive).

`CCOC(=O)N1CCN(C(=O)C2CCCN(Cc3nc(-c4ccc(Cl)cc4)oc3C)C2)CC1` (stereo not drawn) was tested. Which IC50 did it give?
The IC50 was 33.9 µM (inactive).

How did the IC50 turn out when `Cc1ccc(C(=O)O/N=C(\N)c2ccccn2)c(Cl)c1` was run?
Its IC50 is 0.86 µM.

`CCn1c(C)cc(C(=O)CN2C(=O)c3ccccc3S2(=O)=O)c1C` was tested. Which IC50 did it give?
Its IC50 is 0.74 µM.

For `CC(C)(C)OC(=O)NCCCCCc1cn(CC(=O)NCCCCCCCCCCC(=O)N2CCN(C(=O)OC(C)(C)C)CC2)nn1`, which IC50 is on record?
Its IC50 is > 80 µM (inactive).

How did the IC50 turn out when `CCCCCC(=O)N[C@@H](c1ccccc1)[C@@H](O)C(=O)O[C@H]1C[C@@]2(O)[C@@H](OC(=O)c3ccccc3)C3[C@](C)(C(=O)[C@H](OC(C)=O)C(=C1C)C2(C)C)[C@@H](O)C[C@H]1OC[C@@]31OC(C)=O` (stereo partly drawn) was run?
The IC50 was > 80 µM (inactive).

`CCC[C@H]1NC(=O)[C@H](C)N(C)C(=O)C(C)(C)C(=O)C(C)NC(=O)[C@H](Cc2ccc(OC)cc2)N(C)C(=O)[C@H](C(C)C)N(C)C(=O)CNC(=O)[C@H](CC(C)C)N(C)C(=O)CNC(=O)[C@H]([C@@H](C)CC)OC(=O)[C@H]1C` (stereo partly drawn) (cyclo(G[NMeL]G[NMeV][NMeY](Me)[X1][NMeA][X2])) was tested. Which IC50 did it give?
Its IC50 is 29.3 µM (inactive).

Which IC50 does the source give for `CCOc1ccc(-c2[nH]ncc2-c2ccc(OC)c(OC)c2)c(O)c1` here?
Its IC50 is > 80 µM (inactive).

Which IC50 does the source give for `Cc1nc(Sc2nnnn2C)c2c3c(sc2n1)CCC3` here?
The IC50 was > 80 µM (inactive).

How did the IC50 turn out when `N/C(=N\OCc1ccc([N+](=O)[O-])cc1)c1ccccn1` was run?
The IC50 was 2.43 µM.

How did the IC50 turn out when `Cc1nn(C)c(C)c1CN(Cc1nc(CCC(C)C)no1)C(C)C` was run?
Its IC50 is > 80 µM (inactive).

For `Cc1ccc(NC(=O)C2=C(c3ccccc3)S(=O)(=O)CCS2(=O)=O)cc1`, which IC50 is on record?
The IC50 was 0.39 µM.

How did the IC50 turn out when `O=C(OCCN1C(=O)c2cccc3c(N4CCOCC4)ccc(c23)C1=O)c1ccc(Cl)cc1` was run?
Its IC50 is > 80 µM (inactive).

How did the IC50 turn out when `Cc1ccc(S(=O)(=O)Nc2ccccc2-c2ccccc2)cc1` was run?
The IC50 was > 80 µM (inactive).

Which IC50 does the source give for `C#Cc1ccc([C@@H]2C=C(C(=O)N3CCN(Cc4ccccc4)CC3)O[C@H](OCCCCO)C2)cc1` here?
The IC50 was > 80 µM (inactive).

Which IC50 does the source give for `Cc1ccc(C(=O)Nc2cccc(C(=O)O)c2)cc1` here?
The IC50 was 1.7 µM.

`CC(C)(C)c1ccc(C(=O)O/N=C(\N)c2ccccn2)cc1` was tested. Which IC50 did it give?
The IC50 was 0.88 µM.

How did the IC50 turn out when `Cc1ccc(NC(=O)CSc2nc(-c3ccco3)cc(C(F)(F)F)n2)cc1C` was run?
Its IC50 is > 80 µM (inactive).

`COc1ccc(OC)c(Nc2cc(-c3ccccc3)nc(N)n2)c1` was tested. Which IC50 did it give?
The IC50 was > 80 µM (inactive).

With `CC1C/C(=C/c2ccncc2)C(=O)/C(=C/c2ccncc2)C1` (stereo not drawn) as the compound, how does the IC50 read?
The IC50 was 8.39 µM.

With `Cc1nc(SCC(=O)Nc2nc3ccccc3s2)c(C#N)c(C)c1C` as the compound, how does the IC50 read?
Its IC50 is less than 0.16 µM.

With `COC(=O)c1ccccc1NC(=O)CSc1nc(-c2ccco2)cc(C(F)(F)F)n1` as the compound, how does the IC50 read?
The IC50 was > 80 µM (inactive).

For `COc1cc(C(=O)OCCc2cc3ccccc3c(=O)o2)cc(OC)c1OC`, which IC50 is on record?
The IC50 was > 80 µM (inactive).

With `CC(C)(C)c1cc(C=C(C#N)C#N)cc(C(C)(C)C)c1O` as the compound, how does the IC50 read?
Its IC50 is > 80 µM (inactive).

`O=C(NC(Nc1nc2ccc([N+](=O)[O-])cc2s1)(C(F)(F)F)C(F)(F)F)c1ccccc1` was tested. Which IC50 did it give?
The IC50 was 0.72 µM.

With `Cc1cc(C)cc(NC(=O)c2cc(C)n(Cc3cccs3)c2C)c1` as the compound, how does the IC50 read?
Its IC50 is 24.1 µM (inactive).

Which IC50 does the source give for `Cc1ccc(Nc2cc(C)nn2-c2nc(C)cc(=O)[nH]2)cc1` here?
Its IC50 is 0.95 µM.

With `Cc1ccc(/C=N/NC(=O)C2COc3ccccc3O2)s1` (stereo not drawn) as the compound, how does the IC50 read?
The IC50 was 45.6 µM (inactive).

For `O=C(Nc1ccn(Cc2ccccc2F)n1)c1ccc(COc2ccc(Br)cc2)cc1`, which IC50 is on record?
Its IC50 is > 80 µM (inactive).
